From ChEMBL document CHEMBL1914315, “Fijimycins A-C, three antibacterial etamycin-class depsipeptides from a marine-derived Streptomyces sp” (2011)
Converted amounts (≈) assume the structure as drawn.

What was measured:
Format in all cases: functional
[1] = test system: Staphylococcus aureus; assay: Antimicrobial activity against methicillin-resistant Staphylococcus aureus ATCC 33591; conditions: read-out: MIC100
[2] = test system: Staphylococcus aureus; assay: Antimicrobial activity against methicillin-resistant Staphylococcus aureus Sanger 252; conditions: Sanger 252, read-out: MIC100
[3] = test system: Staphylococcus aureus; assay: Antimicrobial activity against methicillin-resistant Staphylococcus aureus UAMS 1182; conditions: read-out: MIC100

Structure (SMILES) | MIC [1] | MIC [2] | MIC [3]
CC(C)C[C@H]1NC(=O)[C@@H](NC(=O)c2ncccc2O)[C@@H](C)OC(=O)[C@@H](c2ccccc2)N(C)C(=O)[C@H](C)NC(=O)[C@H](C(C)C(C)C)N(C)C(=O)CN(C)C(=O)[C@H]2C[C@@H](O)CN2C1=O (stereo not given in full) [FIJIMYCIN A] | 16 µg/mL (≈ 18.2 µM) | 32 µg/mL (≈ 36.4 µM) | 4 µg/mL (≈ 4.55 µM)
CC(C)C[C@H]1NC(=O)[C@@H](NC(=O)c2ncccc2O)[C@@H](C)OC(=O)[C@H](CC(C)C)N(C)C(=O)[C@H](C)NC(=O)[C@H](C(C)C(C)C)N(C)C(=O)CN(C)C(=O)[C@H]2C[C@@H](O)CN2C1=O (stereo not given in full) [FIJIMYCIN B] | > 32 µg/mL |  | > 32 µg/mL
CC(C)C[C@H]1NC(=O)[C@@H](NC(=O)c2ncccc2O)[C@@H](C)OC(=O)[C@H](c2ccccc2)N(C)C(=O)[C@H](CO)NC(=O)[C@H](C(C)C(C)C)N(C)C(=O)CN(C)C(=O)[C@H]2C[C@@H](O)CN2C1=O (stereo not given in full) [FIJIMYCIN C] | 32 µg/mL (≈ 35.8 µM) |  | 8 µg/mL (≈ 8.94 µM)
CC(C)C[C@H]1NC(=O)[C@@H](NC(=O)c2ncccc2O)[C@@H](C)OC(=O)[C@H](c2ccccc2)N(C)C(=O)[C@H](C)NC(=O)[C@H](C(C)C(C)C)N(C)C(=O)CN(C)C(=O)[C@H]2C[C@@H](O)CN2C1=O (stereo not given in full) [VIRIFOGRISEIN I] | 16 µg/mL (≈ 18.2 µM) | 16 µg/mL (≈ 18.2 µM) | 4 µg/mL (≈ 4.55 µM)
